Laboratory results: ChEMBL document CHEMBL1201862, “PubChem BioAssay data set” (2004)
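Results reflect a 48-hour exposure of cells in 96-well plates to compound at five concentrations. Here, GI50 denotes the concentration required for 50% inhibition of growth.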 Active and inactive are the calls of the source. Cut-off read from the data, not from the text of the source: active = GI50 up to about 1.1 µM and inactive = higher.

Columns and labels:
Test in all cases: DTP human tumour cell line panel, 48 h
SK-MEL-5 = system: SK-MEL-5
RPMI-8226 = system: RPMI-8226
Malme-3M = system: Malme-3M
M19-MEL = system: M19-MEL
OVCAR-4 = system: OVCAR-4
IGROV-1 = system: IGROV-1
NCI-H460 = system: NCI-H460
SNB-19 = system: SNB-19
786-0 = system: 786-0
CCRF-CEM = system: CCRF-CEM
COLO 205 = system: COLO 205
MDA-N = system: MDA-N
EKVX = system: EKVX
MOLT-4 = system: MOLT-4
HCC 2998 = system: HCC 2998
KM12 = system: KM12
LOX IMVI = system: LOX IMVI
NCI-H522 = system: NCI-H522
T47D = system: T47D
SR = system: SR

Measured: GI50

Nc1nc2c(ncn2C2CCC(CO)O2)c(=O)n1C(=O)c1ccccc1 (stereo not given)
inactive: SK-MEL-5 > 100 µM | RPMI-8226 > 100 µM | Malme-3M > 100 µM | M19-MEL > 100 µM | OVCAR-4 > 100 µM | IGROV-1 > 100 µM | NCI-H460 > 100 µM | SNB-19 > 100 µM | 786-0 > 100 µM | CCRF-CEM > 100 µM | COLO 205 > 100 µM | MDA-N > 100 µM | EKVX > 100 µM | MOLT-4 > 100 µM | HCC 2998 > 100 µM | KM12 > 100 µM | LOX IMVI > 100 µM | NCI-H522 > 100 µM | T47D > 100 µM | SR 67.3 µM

Cc1ccc(S(=O)(=O)N2c3ccccc3[C@H]3CCC=C[C@H]32)cc1
inactive: SK-MEL-5 7.4 µM | RPMI-8226 6.55 µM | Malme-3M 4.07 µM | M19-MEL 4.68 µM | OVCAR-4 17.3 µM | IGROV-1 10.6 µM | NCI-H460 6.56 µM | SNB-19 25.6 µM | 786-0 13.2 µM | CCRF-CEM 6.9 µM | COLO 205 3.94 µM | MDA-N 3.06 µM | EKVX 12.1 µM | MOLT-4 4.81 µM | HCC 2998 8.11 µM | KM12 3.83 µM | LOX IMVI 10.4 µM | NCI-H522 1.29 µM | T47D 4.97 µM | SR 3.03 µM

CC1=C(/C=C/C(C)=C/C=C/C(C)=C/C(=O)O)C(C)(C)CCC1 [TRETINOIN]
inactive: SK-MEL-5 47.8 µM | RPMI-8226 1.34 µM | Malme-3M 46.3 µM | M19-MEL > 100 µM | OVCAR-4 > 70 µM | IGROV-1 > 78.9 µM | NCI-H460 48.8 µM | SNB-19 47.5 µM | 786-0 49.9 µM | CCRF-CEM 44.3 µM | COLO 205 49.3 µM | MDA-N 45.8 µM | EKVX > 100 µM | MOLT-4 43.6 µM | HCC 2998 51.6 µM | KM12 42.3 µM | LOX IMVI 31.9 µM | NCI-H522 56.9 µM | T47D 2.55 µM | SR 47 µM
